Measured values taken from patent publication US20210363170A1, “4'-THIO-NUCLEOTIDE AND -NUCLEOSIDE PRODRUGS FOR THE TREATMENT OF CANCER” (Southern Research Institute, priority 2018, published 2021).
Where two headings read alike, the source gives them in different places.

What was measured:
Format in all cases: cell-based
KG-1a cells = experiment: Cell viability assay (CellTiter Glo, 72 hours) in KG-1a cells
Method: (§1) KG1a (CCL-246.1, ATCC) and CCRF-CEM (CCL-199, ATCC) cells were grown in RPMI-1640 media containing 10% FBS in T-75 flasks to a density of 1×10^6 cells per mL. Exponentially gown cells were used for the assay. Day 1: 7.5×10^3 cells were seeded in each well of 96 well plate. Day 2: Cells were treated with serial dilutions of each compound (starting 20 uM) or with DMSO as control for 72 hours. Day 5: CellTiter Glo (G9241, Promega) was added to the media of each well and measured by plate reader (Synergy 4, Biotek). Data analysis: Using GraphPad Prism 7 (GraphPad).

CCRF-CEM cells = experiment: Cell viability assay (CellTiter Glo, 72 hours) in CEM cells
Method: as §1

DNMT-1 = experiment: Western blot analysis of DNMT-1 in CEM cells; conditions: DNMT-1 depletion in CEM cells, 96 hours
Method: Cells were treated with serial dilutions of each compound (starting 100 uM for HCT-116 and NCI-H23 cells, and 20 uM for KG-1a and CCRF-CEM cells) or with DMSO as control for 96 hours. Cell lysates were collected and proteins were separated with a SDS-PAGE gel, transferred to a nitrocellulose membrane, blocked in 5% non-fat milk in TBS-T, and probed with anti DNMT-1 (1:7000) rabbit polyclonal antibodies (cat #ab19905, Abcam) in 5% non-fat milk in TBS-T overnight. Membranes were washed three times with TBS-T. The anti-rabbit IgG (7074p2, Cell Signaling) secondary antibody was added at a concentration of 1:5000 in 5% non-fat milk in TBS-T for two hours in room temperature. Membranes were then washed three times with TBS-T, 5 minutes each time. Membranes were then incubated with SuperSignal West Pico Chemiluminescent Substrate (#34080 Thermo) and exposed onto film. Membranes were stripped with stripping buffer (#21059, Thermo) and re-probed with mouse anti tubulin 1:10,000 (T9026, Sigma) and anti-mouse IgG 1:5,000 (70′76p2, Cell Signaling).

[1] = Homo sapiens, KG-1a, 72 h, read-out: Cell Line IC50 (μM) KG-1a
[2] = Homo sapiens, CCRF-CEM, 72 h, read-out: Cell Line IC50 (μM) CEM
[3] = read-out: Cell Line IC50 (μM) KG-1a
[4] = read-out: Cell Line IC50 (μM) CEM

SMILES	IC50 (KG-1a cells; [1]) [µM]	IC50 (CCRF-CEM cells; [2]) [µM]	IC50 (DNMT-1) [nM]	other results
C[C@H](NP(=O)(OC[C@H]1S[C@@H](n2cnc(N)nc2=O)CC1O)Oc1ccccc1)C(=O)OC1CCCC1 (single isomer, unassigned) [Compound 8 Diastereomer 1]	0.6	2.08	–	IC50 (DNMT-1; listed as 8 Diastereomer 1): 330 nM
C[C@H](NP(=O)(OC[C@H]1S[C@@H](n2cnc(N)nc2=O)CC1O)Oc1ccccc1)C(=O)OC1CCCC1 (single isomer, unassigned) [Compound 8 Diastereomer 2]	–	–	–	IC50 (KG-1a cells; [3]): 1.04 µM; IC50 (CCRF-CEM cells; [4]): 1.65 µM; IC50 (DNMT-1; listed as 8 Diastereomer 2): 450 nM
C[C@H](NP(=O)(OC[C@H]1S[C@@H](n2cnc(N)nc2=O)CC1O)Oc1cccc2ccccc12)C(=O)OCc1ccccc1 (single isomer, unassigned) [Compound 9 Diastereomer 1]	–	–	–	IC50 (KG-1a cells; listed as 9 Diastereomer 1, read-out: Cell Line IC50 (μM) KG-1a): 1.1 µM; IC50 (CCRF-CEM cells; listed as 9 Diastereomer 1, read-out: Cell Line IC50 (μM) CEM): 0.5 µM; IC50 (DNMT-1; listed as 9 Diastereomer 1): 300 nM
C[C@H](NP(=O)(OC[C@H]1S[C@@H](n2cnc(N)nc2=O)CC1O)Oc1cccc2ccccc12)C(=O)OCc1ccccc1 (single isomer, unassigned) [Compound 9 Diastereomer 2]	–	–	–	IC50 (KG-1a cells; listed as 9 Diastereomer 2, read-out: Cell Line IC50 (μM) KG-1a): 0.4 µM; IC50 (CCRF-CEM cells; listed as 9 Diastereomer 2, read-out: Cell Line IC50 (μM) CEM): 0.2 µM; IC50 (DNMT-1; listed as 9 Diastereomer 2): 1400 nM
CC(C)COC(=O)[C@H](C)NP(=O)(OC[C@H]1S[C@@H](n2cnc(N)nc2=O)CC1O)Oc1cccc2ccccc12 (single isomer, unassigned) [Compound 10 Diastereomer 1]	0.3	0.2	–	IC50 (DNMT-1; listed as 10 Diastereomer 1): 600 nM
CC(C)COC(=O)[C@H](C)NP(=O)(OC[C@H]1S[C@@H](n2cnc(N)nc2=O)CC1O)Oc1cccc2ccccc12 (single isomer, unassigned) [Compound 10 Diastereomer 2]	–	–	–	IC50 (KG-1a cells; [3]): 0.3 µM; IC50 (CCRF-CEM cells; [4]): 0.2 µM; IC50 (DNMT-1; listed as 10 Diastereomer 2): 800 nM
CCC(CC)COC(=O)[C@H](C)NP(=O)(OC[C@H]1S[C@@H](n2cnc(N)nc2=O)C[C@@H]1O)Oc1cccc2ccccc12 (single isomer, unassigned) [Compound 11 Diastereomer 1]	0.6	0.2	500	–
CCC(CC)COC(=O)[C@H](C)NP(=O)(OC[C@H]1S[C@@H](n2cnc(N)nc2=O)CC1O)Oc1cccc2ccccc12 (single isomer, unassigned) [Compound 11 Diastereomer 2]	0.6	0.08	500	–
CC(C)OC(=O)[C@H](C)NP(=O)(OC[C@H]1S[C@@H](n2cnc(N)nc2=O)C[C@@H]1O)Oc1cccc2ccccc12 (single isomer, unassigned) [Compound 12 Diastereomer 1]	0.6	–	–	IC50 (CCRF-CEM cells; listed as 12 Diastereomer 1, read-out: Cell Line IC50 (μM) CEM): 0.3 µM; IC50 (DNMT-1; listed as 12 Diastereomer 1): 800 nM
CC(C)OC(=O)[C@H](C)NP(=O)(OC[C@H]1S[C@@H](n2cnc(N)nc2=O)C[C@@H]1O)Oc1cccc2ccccc12 (single isomer, unassigned) [Compound 12 Diastereomer 2]	–	–	–	IC50 (KG-1a cells; [3]): 0.7 µM; IC50 (CCRF-CEM cells; listed as 12 Diastereomer 2, read-out: Cell Line IC50 (μM) CEM): 0.1 µM; IC50 (DNMT-1; listed as 12 Diastereomer 2): 1000 nM
C[C@H](N[P@](=O)(OC[C@H]1S[C@@H](n2cnc(N)nc2=O)C[C@@H]1O)Oc1ccccc1)C(=O)OCc1ccccc1 [Compound 1, Benzyl ((S)-(((2R,3S,5R)-5-(4-amino-2-oxo-1,3,5-triazin-1(2H)-yl)-3-hydroxytetrahydrothiophen-2-yl)methoxy)(phenoxy)phosphoryl)-L-alaninate]	0.92	0.13	1200	–
CC(C)COC(=O)[C@H](C)N[P@](=O)(OC[C@H]1S[C@@H](n2cnc(N)nc2=O)C[C@@H]1O)Oc1ccccc1 [Compound 2, Isobutyl ((S)-(((2R,3S,5R)-5-(4-amino-2-oxo-1,3,5-triazin-1(2H)-yl)-3-hydroxytetrahydrothiophen-2-yl)methoxy)(phenoxy)phosphoryl)-L-alaninate]	1.34	0.24	800	–
CC(C)OC(=O)[C@H](C)N[P@](=O)(OC[C@H]1S[C@@H](n2cnc(N)nc2=O)C[C@@H]1O)Oc1ccccc1 [Compound 4, Isopropyl ((S)-(((2R,3S,5R)-5-(4-amino-2-oxo-1,3,5-triazin-1(2H)-yl)-3-hydroxytetrahydrothiophen-2-yl)methoxy)(phenoxy)phosphoryl)-L-alaninate]	0.57	0.24	850	–
COC(=O)[C@H](C)N[P@](=O)(OC[C@H]1S[C@@H](n2cnc(N)nc2=O)C[C@@H]1O)Oc1ccccc1 [Compound 5, Methyl ((S)-(((2R,3S,5R)-5-(4-amino-2-oxo-1,3,5-triazin-1(2H)-yl)-3-hydroxytetrahydrothiophen-2-yl)-methoxy)(phenoxy)-phosphoryl)-L-alaninate]	1.67	2.06	610	–
CCOC(=O)[C@H](C)N[P@](=O)(OC[C@H]1S[C@@H](n2cnc(N)nc2=O)C[C@@H]1O)Oc1ccccc1 [Compound 6, Ethyl ((S)-(((2R,3S,5R)-5-(4-amino-2-oxo-1,3,5-triazin-1(2H)-yl)-3-hydroxytetrahydrothiophen-2-yl)-methoxy)(phenoxy)-phosphoryl)-L-alaninate]	0.31	1.73	350	–
C[C@H](N[P@](=O)(OC[C@H]1S[C@@H](n2cnc(N)nc2=O)C[C@@H]1O)Oc1ccccc1)C(=O)OCc1ccc([N+](=O)[O-])o1 [Compound 7, (5-nitrofuran-2-yl)methyl ((S)-(((2R,3S,5R)-5-(4-amino-2-oxo-1,3,5-triazin-1(2H)-yl)-3-hydroxytetrahydro-thiophen-2-yl)-methoxy)(phenoxy)-phosphoryl)-L-alaninate]	0.76	1.71	220	–
CCC(CC)COC(=O)[C@H](C)N[P@](=O)(OC[C@H]1S[C@@H](n2ccc(N)nc2=O)CC1O)Oc1ccccc1 (stereo partly drawn) [Compound 14]	0.62	0.15	1000	–
CC(C)OC(=O)[C@H](C)N[P@](=O)(OC[C@H]1S[C@@H](n2ccc(N)nc2=O)CC1O)Oc1ccccc1 (stereo partly drawn) [Compound 15]	0.9	0.37	330	–
Nc1ccn([C@H]2C[C@@H](O)[C@@H](CO)S2)c(=O)n1 [T-dCyd, 4-amino-1-[(2R,4R,5R)-4-hydroxy-5-(hydroxymethyl)thiolan-2-yl]pyrimidin-2-one, reference compound]	–	–	470	IC50 (KG-1a cells; Homo sapiens, read-out: Cell Line IC50 (μM) KG-1a): 0.48 µM; IC50 (CCRF-CEM cells; Homo sapiens, CCRF-CEM, read-out: Cell Line IC50 (μM) CEM): 0.08 µM
